Literature values in patent US20040147581A1, “Method of using a Cox-2 inhibitor and a 5-HT1A receptor modulator as a combination therapy” (Pharmacia Corporation, priority 2002, published 2004).

Tested on: fibroblast growth factor-induced corneal angiogenesis
Conditions: rats

Question: With `Cc1ccc(-c2cc(C(F)(F)F)nn2-c2ccc(S(N)(=O)=O)cc2)cc1` [Celecoxib, celecoxib] as the molecule, how does the “inhibition of fibroblast growth factor-induced corneal angiogenesis” value read?
Answer: potent inhibition
